Experimental data as given in US4451284A, “Derivatives of 2-nitro-4- or -5-pyridyloxyphenylphosphonic acid, the preparation thereof, the use thereof as herbicides and/or plant growth regulators” (Ciba-Geigy Corporation, priority 1981, dated 1984).
Like-named read-outs stand apart in the source and are kept apart here.

How the values were obtained:
weeds = assay: Postemergence herbicidal action (contact herbicide), compounds of formula I, overall; format: in vivo; conditions: 4 kg a.i./ha, 15 days later
Method: (§1) The weeds to be tested are sprayed postemergence (in the 4- to 6-leaf stage) with an aqueous dispersion prepared from compounds of formula I formulated as (a) a 10% or (b) a 25% wettable powder or (c) a 25% emulsifiable concentrate, at a rate of application of 4 kg a.i./ha. The plants are kept at 24°-26° C. and 45-60% relative humidity. The test is evaluated 15 days later in accordance with the same rating as used in the preemergence test (Example 19).

Solanum [1] = assay: Postemergence herbicidal action (contact herbicide), compounds of formula I, Solanum; format: in vivo; parameters: key: 1: plants have not germinated or have completely died off; 2-3: very pronounced action; 4-6: medium action; 7-8: slight action; 9: no action (as untreated controls); conditions: 4 kg a.i./ha, 15 days
Method: as §1

Sinapis [2] = assay: Postemergence herbicidal action (contact herbicide), compounds of formula I, Sinapis; format: in vivo; parameters: key: 1: plants have not germinated or have completely died off; 2-3: very pronounced action; 4-6: medium action; 7-8: slight action; 9: no action (as untreated controls); conditions: 4 kg a.i./ha, 15 days
Method: as §1

Setaria [3] = assay: Postemergence herbicidal action (contact herbicide), compounds of formula I, Setaria; format: in vivo; conditions: 4 kg a.i./ha, 15 days
Method: as §1

Erysiphe graminis = assay: Action against Erysiphe graminis on barley; format: in vivo; conditions: 0.02% spray mixture, 10 days
Method: Barley plants about 8 cm in height are sprayed with a spray mixture (0.02% of compound of formula I) prepared from a 25% emulsifiable concentrate. After 3-4 hours the plants are dusted with conidia of Erysiphe graminis. The infected barley plants are then stood in a greenhouse at about 22° C. Evaluation of fungus attack is made 10 days later.

Xanthomonas oryzae [4] = format: in vivo; conditions: for bactericidal properties in words: residual-protective action
Xanthomonas oryzae [5] = format: in vivo; conditions: for bactericidal activity: based on the volume of the soil
Phaseolus = assay: Postemergence herbicidal action (contact herbicide), compounds of formula II, Phaseolus; format: in vivo; parameters: key to postemergence herbicidal action rating: 1: plants completely withered; 2-3: very pronounced action; 4-6: medium action; 7-8: insignificant action; 9: no action (as untreated controls); conditions: 4 kg a.i./ha, 15 days; for postemergence herbicidal action rating: 25% wettable powder; for herbicidal action in words: postemergence
Method: (§2) The plants for testing are sprayed postemergence (in the 4- to 6-leaf stage) at a concentration of 4 kg a.i./ha with an aqueous dispersion prepared from a compound of formula II formulated as a 25% wettable powder. The plants are then kept at 24°-26° C. and 45-60% relative humidity. The test is evaluated 15 days later according to the following rating: […]

Solanum [6] = assay: Postemergence herbicidal action (contact herbicide), compounds of formula II, Solanum; format: in vivo; parameters: key to postemergence herbicidal action rating: 1: plants completely withered; 2-3: very pronounced action; 4-6: medium action; 7-8: insignificant action; 9: no action (as untreated controls); conditions: 4 kg a.i./ha, 15 days; for postemergence herbicidal action rating: 25% wettable powder; for herbicidal action in words: postemergence
Method: as §2

wheat [7] = assay: Stimulation of root growth in wheat (plastic cylinders, 10 days); format: in vivo; conditions: seed treatment 4-130 mg per kg of seeds or soil spray 0.3 to 3 kg/ha; after 10 days
Method: Compounds of formula I are applied in the form of aqueous dispersions prepared from a 25% wettable powder. The test is carried out with seeds which are sown in plastic cylinders measuring 5×30 cm and filled with soil (10 seeds per cylinder). The seeds are (a) treated before sowing at rates of application of 4-130 mg per kg of seeds or (b) are untreated and the soil is sprayed with a dispersion of the active ingredient at rates of application of 0.3 to 3 kg/ha. The cylinders are kept under controlled conditions in a climatic chamber. After 10 days, the seedlings are carefully washed with water to remove the soil and the length and dry weight of the roots are assessed.

wheat [8] = assay: Stimulation of root growth in wheat (plastic boxes, 30 days); format: in vivo; conditions: for root dry weight expressed as % of controls / root length expressed as % of controls: 30 days, controls = 100%
Method: (§3) Compounds of formula I are employed in the form of aqueous dispersions prepared from a 25% wettable powder. The test is carried out with seeds which are sown in plastic boxes measuring 5×35×60 cm and filled with soil (15 seeds per box). The seeds are treated before sowing at rates of application of 45-500 mg per kg of seeds. The boxes are kept under controlled conditions in a climatic chamber. After 30 days, the plants are carefully washed with water to remove the soil and the length and dry weight of the roots are assessed.

cotton = assay: Stimulation of root growth in cotton (plastic boxes, 30 days); format: in vivo; conditions: for root dry weight expressed as % of controls / root length expressed as % controls: 30 days, controls = 100%
Method: as §3

mould fungi = assay: Action against mould fungus on moist maize; format: in vivo, mixed population of mould fungi; conditions: for reduction of fungus attack compared with untreated controls: 0.06% a.i.
Description: Dry maize grains (portions of 80 g each) are thoroughly mixed in sealable plastic beakers with an aqueous suspension prepared from a 25% wettable powder formulation of a compound of formula I. The application is so adjusted as to give a concentration of 0.06% of active ingredient, based on the weight of dry maize. A moistened slip of paper provides for a saturated humid atmosphere in the beakers which are filled with maize and then sealed. A mixed population of mould fungi develops spontaneously after incubation for 2-3 weeks at about 20° C. in the maize samples which have been treated only with water. The effectiveness of the test compounds is assessed by evaluating the degree of fungus development after 3 weeks.
A visual assessment is made after each month according to the same criteria as specified above.

soya bean plants = assay: Regulation of the growth of soya bean plants; conditions: controls = 100%
Setaria [9] = assay: Preemergence herbicidal action (inhibition of germination), Setaria; format: in vivo; parameters: key to preemergence herbicidal action rating: 1: plants have not germinated or have completely died off; 2-3: very pronounced action; 4-6: medium action; 7-8: slight action; 9: no action (as untreated controls); conditions: 4 kg a.i./ha, after 3 weeks
Method: (§4) In a greenhouse, immediately after sowing seeds of test plants in seed dishes, the surface of the soil is treated with an aqueous dispersion prepared from a 10% wettable powder formulation of test compounds of formula I. Concentrations of 4 kg of active ingredient per hectare are used. The seed dishes are kept in the greenhouse at 22°-25° C. and 50-70% relative humidity, and the test is evaluated after 3 weeks in accordance with the following rating: […]

Stellaria = assay: Preemergence herbicidal action (inhibition of germination), Stellaria; format: in vivo; parameters: key to preemergence herbicidal action rating: 1: plants have not germinated or have completely died off; 2-3: very pronounced action; 4-6: medium action; 7-8: slight action; 9: no action (as untreated controls); conditions: 4 kg a.i./ha, after 3 weeks
Method: as §4

Sinapis [10] = assay: Preemergence herbicidal action (inhibition of germination), Sinapis; format: in vivo; conditions: 4 kg a.i./ha, after 3 weeks
Method: as §4

[11] = formulation (c) 25% emulsifiable concentrate
[12] = formulation (b) 25% wettable powder
[13] = seed treatment 45-500 mg per kg of seeds, after 30 days
[14] = formulation (a) 10% wettable powder

COP(=O)(OC)c1cc(Oc2ccc(C(F)(F)F)cn2)ccc1[N+](=O)[O-] [Compound 1]
postemergence effectiveness in words (weeds): very effective
postemergence herbicidal action rating (Solanum [1]; [11]): 4
postemergence herbicidal action rating (Sinapis [2]; [11]): 3
postemergence herbicidal action rating (Setaria [3]; [11]): 4
reduction of fungus attack compared with untreated controls (Erysiphe graminis; 25% emulsifiable concentrate, untreated = 100% attack): 80-95%
effectiveness in words (Erysiphe graminis): particularly effective

COP(=O)(OC)c1cc(Oc2ncc(Cl)cc2Cl)ccc1[N+](=O)[O-] [Compound 4, Dimethyl 2-nitro-5-(3',5'-dichloro-2'-pyridyloxy)phenylphosphonate]
postemergence effectiveness in words (weeds): very effective
postemergence herbicidal action rating (Solanum [1]; [12]): 2
postemergence herbicidal action rating (Sinapis [2]; [12]): 3
postemergence herbicidal action rating (Setaria [3]; [12]): 3
action (Xanthomonas oryzae [4]; concentration of 0.0006%): 80-95%
action (Xanthomonas oryzae [4]; concentration of 0.006%): over 95%
bactericidal properties in words (Xanthomonas oryzae [4]): pronounced bactericidal properties
bactericidal activity (Xanthomonas oryzae [5]; concentration of 0.0006%): 50-80%
bactericidal activity (Xanthomonas oryzae [5]; concentration of 0.006%): over 95%
bactericidal activity in words (Xanthomonas oryzae [5]; systemic action): pronounced bactericidal activity

O=[N+]([O-])c1ccc(Oc2ncc(C(F)(F)F)cc2Cl)cc1[N+](=O)[O-] [II-2, 1,2-dinitro-4-(3'-chloro-5'-trifluoromethyl-2'-pyridyloxy)benzene]
postemergence herbicidal action rating (Phaseolus): 1
herbicidal action in words (Phaseolus): excellent herbicidal action
postemergence herbicidal action rating (Solanum [6]): 1
herbicidal action in words (Solanum [6]): excellent herbicidal action

O=[N+]([O-])c1ccc(Oc2ccc(C(F)(F)F)cn2)cc1P(=O)(O)O [Compound 3]
root growth stimulation effectiveness in words (wheat [7]): very effective
root dry weight expressed as % of controls (wheat [8]; 45 mg a.i./kg of seeds): 105 % of controls
root length expressed as % of controls (wheat [8]; 45 mg a.i./kg of seeds): 98 % of controls
root dry weight expressed as % of controls (wheat [8]; 150 mg a.i./kg of seeds): 112 % of controls
root length expressed as % of controls (wheat [8]; 150 mg a.i./kg of seeds): 107 % of controls
root dry weight expressed as % of controls (wheat [8]; 500 mg a.i./kg of seeds): 110 % of controls
root length expressed as % of controls (wheat [8]; 500 mg a.i./kg of seeds): 107 % of controls
root growth stimulation effectiveness in words (wheat [8]; [13]): every effective
root dry weight expressed as % of controls (cotton; 45 mg a.i./kg of seeds): 105 % of controls
root length expressed as % controls (cotton; 45 mg a.i./kg of seeds): 122 % controls
root dry weight expressed as % of controls (cotton; 150 mg a.i./kg of seeds): 97 % of controls
root length expressed as % controls (cotton; 150 mg a.i./kg of seeds): 111 % controls
root dry weight expressed as % of controls (cotton; 500 mg a.i./kg of seeds): 129 % of controls
root length expressed as % controls (cotton; 500 mg a.i./kg of seeds): 122 % controls
root growth stimulation effectiveness in words (cotton; [13]): every effective
reduction of fungus attack compared with untreated controls (mould fungi; after 3 weeks): 80-95%
reduction of fungus attack compared with untreated controls (mould fungi; after 3 weeks and a further month): 80-95%
reduction of fungus attack compared with untreated controls (mould fungi; after 3 weeks, a further month and yet a further month): 50-80%
fungicidal activity in words (mould fungi; 0.06% of active ingredient on dry maize): particularly pronounced fungicidal activity
Weight of pods as % of controls (soya bean plants; 0.08 kg a.i./ha): 119 % of controls
no. of pods as % of controls (soya bean plants; 0.08 kg a.i./ha): 107 % of controls
Weight of pods as % of controls (soya bean plants; 0.40 kg a.i./ha): 119 % of controls
no. of pods as % of controls (soya bean plants; 0.40 kg a.i./ha): 119 % of controls
Weight of pods as % of controls (soya bean plants; 0.80 kg a.i./ha): 135 % of controls
no. of pods as % of controls (soya bean plants; 0.80 kg a.i./ha): 109 % of controls
Weight of pods as % of controls (soya bean plants; 4.00 kg a.i./ha): 108 % of controls
no. of pods as % of controls (soya bean plants; 4.00 kg a.i./ha): 98 % of controls

O=[N+]([O-])c1ccc(Oc2ccc(C(F)(F)F)cn2)cc1[N+](=O)[O-] [II-3, 1,2-dinitro-4-(5'-trifluoromethyl-2'-pyridyloxy)benzene]
postemergence herbicidal action rating (Phaseolus): 1
herbicidal action in words (Phaseolus): excellent herbicidal action
postemergence herbicidal action rating (Solanum [6]): 3
herbicidal action in words (Solanum [6]): excellent herbicidal action

CCOP(=O)(OCC)c1cc(Oc2ncc(Cl)cc2Cl)ccc1[N+](=O)[O-] [Compound 9, Diethyl 2-nitro-5-(3',5'-dichloro-2'-pyridyloxy)phenylphosphonate]
postemergence effectiveness in words (weeds): very effective
postemergence herbicidal action rating (Solanum [1]; [11]): 1
postemergence herbicidal action rating (Sinapis [2]; [11]): 2
postemergence herbicidal action rating (Setaria [3]; [11]): 2

COP(=O)(OC)c1cc(Oc2ncc(C(F)(F)F)cc2Cl)ccc1[N+](=O)[O-] [Compound 6, Dimethyl 2-nitro-5-(3'-chloro-5'-trifluoromethyl-2'-pyridyloxy)phenylphosphonate]
preemergence herbicidal action rating (Setaria [9]; 10% wettable powder): 1
preemergence effectiveness in words (Setaria [9]): very effective
preemergence herbicidal action rating (Stellaria; 10% wettable powder): 1
preemergence effectiveness in words (Stellaria): very effective
preemergence herbicidal action rating (Sinapis [10]; 10% wettable powder): 2
preemergence effectiveness in words (Sinapis [10]): very effective
postemergence effectiveness in words (weeds): very effective
postemergence herbicidal action rating (Solanum [1]; [14]): 1
postemergence herbicidal action rating (Sinapis [2]; [14]): 1
postemergence herbicidal action rating (Setaria [3]; [14]): 3
action (Xanthomonas oryzae [4]; concentration of 0.02%): over 95%
bactericidal properties in words (Xanthomonas oryzae [4]): pronounced bactericidal properties

CCOP(=O)(OCC)c1cc(Oc2ncc(C(F)(F)F)cc2Cl)ccc1[N+](=O)[O-] [Compound 7, Diethyl 2-nitro-5-(3'-chloro-5'-trifluoromethyl-2'-pyridyloxy)phenylphosphonate]
postemergence effectiveness in words (weeds): very effective
postemergence herbicidal action rating (Solanum [1]; [11]): 1
postemergence herbicidal action rating (Sinapis [2]; [11]): 2
postemergence herbicidal action rating (Setaria [3]; [11]): 3
